pEC50, pIC50, pKi: −log10 of the molar value. The source made the active and inactive calls. No cut-off for these calls is given here.

This note sets out measurements from ChEMBL document CHEMBL1795251, “Structure-based design of thienobenzoxepin inhibitors of PI3-kinase” (Bioorg Med Chem Lett, 2011).

In data set [1] the target is Phosphatidylinositol 4,5-bisphosphate 3-kinase catalytic subunit alpha isoform (Homo sapiens, UniProt P42336).
Data set [2] is described as follows: in vivo. The conditions noted are these: rat, plasma, iv, 1 mg/kg.
Data set [3] can be described thus: in vivo. The conditions noted are these: mouse, plasma, iv, 1 mg/kg.
The next data set deals with Hepatocyte. Kind of data set: Metabolic stability in cryopreserved human hepatocytes assessed as N-(2-chlorophenyl)-N-methyl-8-(1H-pyrazol-4-yl)-4,5-dihydrobenzo[b]thieno[2,3-d]oxepine-2-carboxamide formation. Format: ADME, cell-based.
Data set [4] has as its target Serine/threonine-protein kinase mTOR (Homo sapiens, UniProt P42345). Kind of data set: Inhibition of mTOR.
Another data set has as its system PC-3. Kind of data set: Antiproliferative activity against human PC3 cells. Format: functional, cell-based.
For the next data set, the system named is MCF7. Kind of data set: Antiproliferative activity against human MCF7 cells. It is filed as functional, cell-based.
Data set [5] is described as follows: Plasma protein binding in human. It is filed as ADME, cell-free. The conditions noted are these: read-out: PPB (converted).
A short description of data set [6]: Plasma protein binding in rat. The conditions noted are these: read-out: PPB (converted). It is filed as ADME, cell-free.
The nature of data set [7]: Plasma protein binding in mouse. The conditions noted are these: read-out: PPB (converted). Format: ADME, cell-free.
Data set [8] is described as follows: Plasma protein binding in dog. Format: ADME, cell-free, Canis lupus familiaris. To be noted: read-out: PPB (converted).
Data set [9] is described as follows: Plasma protein binding in cynomolgus monkey. Format: ADME, cell-free, Macaca fascicularis. To be noted: read-out: PPB.
A short description of data set [10]: Plasma clearance in rat at 100 mg/kg. It is filed as ADME, organism-based. On the set-up: dose 100 mg/kg.
A short description of data set [11]: Oral bioavailability in rat at 100 mg/kg. To be noted: in vivo. Format: ADME, organism-based.
Data set [12] is described as follows: AUC in rat at 100 mg/kg. The conditions noted are these: plasma. It is filed as ADME, organism-based. On the set-up: dose 100 mg/kg.
Data set [13] in a line: Plasma clearance in mouse at 100 mg/kg. It is filed as ADME, organism-based. On the set-up: dose 100 mg/kg.
A short description of data set [14]: Oral bioavailability in mouse at 100 mg/kg. Format: ADME, organism-based. The conditions noted are these: in vivo.
Data set [15] can be described thus: AUC in mouse at 100 mg/kg. Format: ADME, organism-based. On the set-up: dose 100 mg/kg. The conditions noted are these: plasma.
A short description of data set [16]: Plasma clearance in cynomolgus monkey. Format: ADME, organism-based, Macaca fascicularis.
Data set [17] deals with Mus musculus. Kind of data set: Inhibition of PI3K pathway in nude mouse xenografted with HER2 expressing MCF7 assessed as reduction in phosphorylated AKT levels at 50 mg/kg, po administered as single dose after 6 hrs relative to control. Format: functional, organism-based. On the set-up: dose 50 mg/kg.
Data set [18] concerns Mus musculus. Nature of the data set: Inhibition of PI3K pathway in nude mouse xenografted with HER2 expressing MCF7 assessed as reduction in phosphorylated PRAS40 levels at 50 mg/kg, po administered as single dose after 6 hrs relative to control. It is filed as functional, organism-based. On the set-up: dose 50 mg/kg.
Data set [19] has as its system Mus musculus. Kind of data set: Inhibition of PI3K pathway in nude mouse xenografted with HER2 expressing MCF7 assessed as reduction in phosphorylated S6RP levels at 50 mg/kg, po administered as single dose after 6 hrs relative to control. It is filed as functional, organism-based. On the set-up: dose 50 mg/kg.
A short description of data set [20]: Plasma clearance in dog at 2 mg/kg. On the set-up: dose 2 mg/kg. It is filed as ADME, organism-based, Canis lupus familiaris.
Data set [21] in a line: Oral bioavailability in dog at 2 mg/kg. It is filed as ADME, organism-based, Canis lupus familiaris. To be noted: in vivo.
A short description of data set [22]: AUC in dog at 2 mg/kg. It is filed as ADME, organism-based, Canis lupus familiaris. On the set-up: dose 2 mg/kg. To be noted: plasma.
Data set [23] has as its target DNA-dependent protein kinase catalytic subunit (Homo sapiens, UniProt P78527). Kind of data set: Inhibition of DNA-PK.
Data set [24] in a line: in vivo. To be noted: nude, mouse, plasma, po, 50 mg/kg.
A short description of data set [25]: in vivo. The conditions noted are these: nude, mouse, plasma, po, 50 mg/kg. The source holds these as a separate data set.
Data set [26] in a line: in vivo. To be noted: nude, mouse, tumor, po, 50 mg/kg.
Data set [27] can be described thus: in vivo. The conditions noted are these: nude, mouse, tumor, po, 50 mg/kg. The source holds these as a separate data set.

Chain of Phosphatidylinositol 4,5-bisphosphate 3-kinase catalytic subunit alpha isoform (P42336 whole entry, canonical isoform): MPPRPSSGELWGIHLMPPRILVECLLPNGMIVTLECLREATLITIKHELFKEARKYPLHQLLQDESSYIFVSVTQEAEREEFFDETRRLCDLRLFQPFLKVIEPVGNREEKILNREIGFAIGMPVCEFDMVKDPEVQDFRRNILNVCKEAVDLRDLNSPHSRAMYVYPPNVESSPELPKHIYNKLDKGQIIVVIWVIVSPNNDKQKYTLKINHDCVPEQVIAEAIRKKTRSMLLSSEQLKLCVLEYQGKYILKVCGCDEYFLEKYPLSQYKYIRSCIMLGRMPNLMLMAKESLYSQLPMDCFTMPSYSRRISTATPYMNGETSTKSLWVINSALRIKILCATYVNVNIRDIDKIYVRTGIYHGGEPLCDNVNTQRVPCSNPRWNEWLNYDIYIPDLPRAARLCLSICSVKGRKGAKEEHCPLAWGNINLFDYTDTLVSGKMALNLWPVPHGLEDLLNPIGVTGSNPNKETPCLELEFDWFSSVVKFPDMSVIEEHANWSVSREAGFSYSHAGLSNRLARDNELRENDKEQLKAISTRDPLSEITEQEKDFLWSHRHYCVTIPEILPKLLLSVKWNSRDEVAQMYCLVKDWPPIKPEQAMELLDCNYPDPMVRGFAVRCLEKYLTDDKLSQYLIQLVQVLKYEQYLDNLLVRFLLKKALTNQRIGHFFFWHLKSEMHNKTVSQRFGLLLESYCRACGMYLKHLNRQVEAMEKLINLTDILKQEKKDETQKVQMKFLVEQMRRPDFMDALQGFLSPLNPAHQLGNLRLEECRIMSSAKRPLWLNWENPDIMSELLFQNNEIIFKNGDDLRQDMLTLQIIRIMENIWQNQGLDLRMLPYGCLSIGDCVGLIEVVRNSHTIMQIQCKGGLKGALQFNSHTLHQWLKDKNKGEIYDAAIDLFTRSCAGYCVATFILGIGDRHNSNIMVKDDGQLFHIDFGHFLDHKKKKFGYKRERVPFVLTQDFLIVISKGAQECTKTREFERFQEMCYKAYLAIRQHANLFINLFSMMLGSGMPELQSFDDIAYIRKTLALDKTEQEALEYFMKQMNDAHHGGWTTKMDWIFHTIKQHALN
Chain of DNA-dependent protein kinase catalytic subunit (P78527 whole entry): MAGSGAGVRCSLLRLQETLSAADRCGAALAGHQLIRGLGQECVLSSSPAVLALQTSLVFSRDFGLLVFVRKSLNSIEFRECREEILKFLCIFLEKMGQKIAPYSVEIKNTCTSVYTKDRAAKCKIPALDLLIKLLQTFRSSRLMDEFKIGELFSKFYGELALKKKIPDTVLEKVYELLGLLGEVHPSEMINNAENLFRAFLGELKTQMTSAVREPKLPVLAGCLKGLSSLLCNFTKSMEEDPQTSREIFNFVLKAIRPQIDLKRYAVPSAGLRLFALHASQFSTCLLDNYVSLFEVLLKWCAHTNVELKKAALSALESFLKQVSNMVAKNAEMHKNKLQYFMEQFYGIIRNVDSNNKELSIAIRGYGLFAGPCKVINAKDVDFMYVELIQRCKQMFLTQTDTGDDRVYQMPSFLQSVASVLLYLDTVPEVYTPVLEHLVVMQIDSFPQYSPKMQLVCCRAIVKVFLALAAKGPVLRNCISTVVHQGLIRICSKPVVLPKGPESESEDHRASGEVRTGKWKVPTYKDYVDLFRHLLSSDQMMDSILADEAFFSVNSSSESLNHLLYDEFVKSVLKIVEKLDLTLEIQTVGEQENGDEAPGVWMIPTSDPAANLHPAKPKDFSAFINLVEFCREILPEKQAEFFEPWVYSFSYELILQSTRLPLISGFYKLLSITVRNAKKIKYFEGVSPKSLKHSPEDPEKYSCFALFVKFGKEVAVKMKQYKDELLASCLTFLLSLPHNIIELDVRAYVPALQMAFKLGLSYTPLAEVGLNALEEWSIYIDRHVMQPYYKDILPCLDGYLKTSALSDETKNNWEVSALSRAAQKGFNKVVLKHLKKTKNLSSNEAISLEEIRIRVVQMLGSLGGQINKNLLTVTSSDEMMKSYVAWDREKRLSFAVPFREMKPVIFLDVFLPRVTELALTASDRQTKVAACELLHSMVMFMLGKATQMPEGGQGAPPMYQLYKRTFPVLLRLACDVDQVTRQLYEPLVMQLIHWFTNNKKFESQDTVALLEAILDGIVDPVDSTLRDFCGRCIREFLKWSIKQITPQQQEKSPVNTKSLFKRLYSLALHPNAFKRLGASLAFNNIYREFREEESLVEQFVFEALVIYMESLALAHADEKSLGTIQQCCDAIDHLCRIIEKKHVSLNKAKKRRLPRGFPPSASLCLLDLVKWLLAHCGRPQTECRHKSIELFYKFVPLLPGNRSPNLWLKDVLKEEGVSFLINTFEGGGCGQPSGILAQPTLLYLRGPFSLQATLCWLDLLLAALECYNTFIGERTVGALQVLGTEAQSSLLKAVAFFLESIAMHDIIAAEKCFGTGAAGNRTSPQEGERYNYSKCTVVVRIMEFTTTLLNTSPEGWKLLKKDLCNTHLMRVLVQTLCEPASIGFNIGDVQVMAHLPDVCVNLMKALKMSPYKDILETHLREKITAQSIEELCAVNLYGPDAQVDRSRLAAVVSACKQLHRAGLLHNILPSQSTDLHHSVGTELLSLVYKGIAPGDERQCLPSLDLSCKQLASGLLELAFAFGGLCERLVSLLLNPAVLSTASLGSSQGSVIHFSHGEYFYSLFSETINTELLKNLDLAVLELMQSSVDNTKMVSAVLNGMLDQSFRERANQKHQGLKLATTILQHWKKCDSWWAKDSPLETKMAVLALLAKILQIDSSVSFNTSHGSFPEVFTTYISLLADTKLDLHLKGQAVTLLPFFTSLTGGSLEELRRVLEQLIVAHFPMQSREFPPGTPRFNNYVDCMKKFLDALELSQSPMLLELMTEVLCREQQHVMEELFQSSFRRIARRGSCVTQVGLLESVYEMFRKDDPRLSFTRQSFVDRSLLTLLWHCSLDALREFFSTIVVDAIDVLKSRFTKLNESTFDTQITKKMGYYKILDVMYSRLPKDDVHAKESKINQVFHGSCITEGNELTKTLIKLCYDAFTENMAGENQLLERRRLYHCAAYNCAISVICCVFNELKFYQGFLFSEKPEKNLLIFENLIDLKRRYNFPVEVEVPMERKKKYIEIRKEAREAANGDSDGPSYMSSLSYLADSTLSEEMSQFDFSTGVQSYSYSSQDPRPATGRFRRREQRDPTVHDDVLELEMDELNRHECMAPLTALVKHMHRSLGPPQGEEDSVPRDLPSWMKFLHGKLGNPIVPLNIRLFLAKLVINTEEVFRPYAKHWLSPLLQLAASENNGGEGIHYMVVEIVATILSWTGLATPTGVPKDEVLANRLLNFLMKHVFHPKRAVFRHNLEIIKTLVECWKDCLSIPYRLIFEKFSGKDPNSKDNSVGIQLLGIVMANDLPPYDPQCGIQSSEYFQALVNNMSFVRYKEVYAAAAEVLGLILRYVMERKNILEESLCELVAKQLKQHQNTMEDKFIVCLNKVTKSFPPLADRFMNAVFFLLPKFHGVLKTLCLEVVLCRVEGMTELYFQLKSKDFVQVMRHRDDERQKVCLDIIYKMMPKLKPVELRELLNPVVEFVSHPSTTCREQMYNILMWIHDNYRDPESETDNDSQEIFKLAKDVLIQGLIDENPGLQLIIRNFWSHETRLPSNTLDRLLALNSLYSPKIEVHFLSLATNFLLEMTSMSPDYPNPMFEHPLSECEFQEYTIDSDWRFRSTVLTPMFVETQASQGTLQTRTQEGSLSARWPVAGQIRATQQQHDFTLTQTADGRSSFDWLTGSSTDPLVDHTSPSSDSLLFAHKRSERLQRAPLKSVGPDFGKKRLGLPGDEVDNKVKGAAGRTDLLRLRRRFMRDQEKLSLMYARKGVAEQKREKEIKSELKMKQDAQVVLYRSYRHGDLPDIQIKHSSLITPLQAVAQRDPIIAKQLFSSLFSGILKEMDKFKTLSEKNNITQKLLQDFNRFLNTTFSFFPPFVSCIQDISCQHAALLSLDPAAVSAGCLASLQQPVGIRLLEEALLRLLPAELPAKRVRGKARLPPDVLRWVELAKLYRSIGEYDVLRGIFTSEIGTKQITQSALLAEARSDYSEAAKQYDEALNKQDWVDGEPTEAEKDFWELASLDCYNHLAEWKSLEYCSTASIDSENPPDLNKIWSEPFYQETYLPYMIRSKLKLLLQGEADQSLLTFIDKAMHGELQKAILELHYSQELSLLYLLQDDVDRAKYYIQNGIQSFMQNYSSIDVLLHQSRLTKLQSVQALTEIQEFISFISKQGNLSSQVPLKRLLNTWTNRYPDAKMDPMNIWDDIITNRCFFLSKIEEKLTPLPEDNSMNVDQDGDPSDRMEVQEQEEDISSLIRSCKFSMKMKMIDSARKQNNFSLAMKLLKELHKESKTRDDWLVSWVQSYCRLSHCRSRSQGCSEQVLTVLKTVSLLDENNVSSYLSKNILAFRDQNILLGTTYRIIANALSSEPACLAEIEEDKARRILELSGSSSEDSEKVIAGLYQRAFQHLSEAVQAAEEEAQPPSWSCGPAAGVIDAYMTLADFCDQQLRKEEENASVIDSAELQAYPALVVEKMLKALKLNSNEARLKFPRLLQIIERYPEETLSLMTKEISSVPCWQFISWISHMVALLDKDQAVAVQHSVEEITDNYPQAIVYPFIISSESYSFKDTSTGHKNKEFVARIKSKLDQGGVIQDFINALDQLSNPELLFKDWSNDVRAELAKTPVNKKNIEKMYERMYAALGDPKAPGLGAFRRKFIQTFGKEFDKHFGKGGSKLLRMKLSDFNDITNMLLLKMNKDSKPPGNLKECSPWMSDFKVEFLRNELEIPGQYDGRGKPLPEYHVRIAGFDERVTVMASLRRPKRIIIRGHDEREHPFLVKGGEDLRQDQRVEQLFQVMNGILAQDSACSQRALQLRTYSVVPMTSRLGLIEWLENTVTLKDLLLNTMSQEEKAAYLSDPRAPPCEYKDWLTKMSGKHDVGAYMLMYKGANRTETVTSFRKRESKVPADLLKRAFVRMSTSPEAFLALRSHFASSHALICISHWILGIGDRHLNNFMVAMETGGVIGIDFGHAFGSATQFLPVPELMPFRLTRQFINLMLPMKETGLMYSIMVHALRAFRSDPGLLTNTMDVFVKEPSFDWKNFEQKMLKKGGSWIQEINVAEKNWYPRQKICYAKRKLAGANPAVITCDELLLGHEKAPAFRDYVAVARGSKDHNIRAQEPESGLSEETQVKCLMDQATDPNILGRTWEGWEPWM

On to `COc1ccccc1N(C)C(=O)c1cc2c(s1)-c1ccccc1OC2`, for which, in data set [1], the negative logarithm of the IC50 (pIC50) (commonly −log10 of the IC50, conventionally taken in molar units) was 6.17.
On the same count and under the same terms, with `CC(C)CN(C)C(=O)c1cc2c(s1)-c1ccccc1OC2` the figure was 4.77.
With `CNC(=O)c1ccc2c(c1)OCCc1cc(C(=O)N(C)c3cc(C(=O)N(C)C)ccc3Cl)sc1-2`, the values for the clearance in the data set “in vivo [2]” and in “in vivo [3]” were 66 mL/min/kg and 55 mL/min/kg, respectively.
As for `COC(=O)Nc1ccc2c(c1)OCCc1cc(C(=O)N(C)c3ccccc3Cl)sc1-2`, in data set [1], the pKi – broadly, −log10 of the Ki, conventionally taken in molar units – is 8.82. Moreover, the clearance (commonly the volume of plasma or blood freed of the substance per unit of time) in “in vivo [2]” came to 44 mL/min/kg.
`CN(C(=O)c1cc2c(s1)-c1ccccc1OC2)c1cccc(F)c1`: the negative-log IC50 (pIC50) in data set [1] is 6.00.
As for `CNC(=O)c1ccc2c(c1)OCCc1cc(C(=O)N(C)c3ccc(F)cc3Cl)sc1-2`, the clearance in the data set “in vivo [2]” amounted to 153 mL/min/kg; in “in vivo [3]” it was 182 mL/min/kg.
With `CN(C(=O)c1cc2c(s1)-c1ccc(-c3cn[nH]c3)cc1OCC2)c1ccncc1Cl`, in [1], the negative-log Ki (pKi) is 7.19.
In data set [1], `CN(C(=O)c1cc2c(s1)-c1ccc(C(N)=O)cc1OCC2)c1ccccc1Cl` gave a negative-log Ki (pKi) of 8.92. In “in vivo [2]”, the clearance was 89 mL/min/kg.
In data set [1], `CN(C(=O)c1cc2c(s1)-c1ccc(C(=O)N3CCOCC3)cc1OCC2)c1ccccc1Cl` showed a negative logarithm of the Ki (pKi) of 7.51.
Take `CN(C(=O)c1cc2c(s1)-c1ccccc1OC2)c1ccccn1`: the pIC50 in data set [1] was < 5.00.
Same read-out and setting: the same measure for `Cc1ccccc1N(C)C(=O)c1cc2c(s1)-c1ccccc1OC2`: 6.16; for `CC(C)N(C)C(=O)c1cc2c(s1)-c1ccccc1OC2`: 5.28.
Take `CNC(=O)c1ccc(N(C)C(=O)c2cc3c(s2)-c2ccc(C(=O)NC)cc2OCC3)c(Cl)c1`: the pKi in data set [1] is 8.60. The clearance is 28 mL/min/kg in the data set “in vivo [2]” and 24 mL/min/kg in the data set “in vivo [3]”.
Consider `CN(C(=O)c1cc2c(s1)-c1ccccc1OC2)c1ccc(F)cc1`, for which the pIC50 in data set [1] was 6.00.
In turn, `CN(C(=O)c1cc2c(s1)-c1ccc(-c3cn[nH]c3)cc1OCC2)c1ccccc1Cl` showed a pKi in data set [1] of 9.22.
`CN(C(=O)c1cc2c(s1)-c1ccccc1OCC2)c1ccccc1Cl`: the clearance in the data set “in vivo [2]” came to 60 mL/min/kg.
`CNC(=O)c1ccc2c(c1)OCCc1cc(C(=O)N(C)c3ccccc3Cl)sc1-2`: the Stability in the data set with Hepatocyte is 5 µM.
On to `CN(C(=O)c1cc2c(s1)-c1ccccc1OCC2)c1ccncc1Cl`, for which, in data set [1], the pKi is 6.33. This compound had a clearance in “in vivo [2]” of 23 mL/min/kg.
For the compound `CNC(=O)c1ccc2c(c1)OCCc1cc(C(=O)N(C)c3ccc(C(=O)N(C)C)cc3Cl)sc1-2`, the pIC50 was 6.28 in data set [4] and 8.22 in data set [23]. For the same compound, the values for the negative-log EC50 (pEC50) in the data set on PC-3 and with MCF7 were 6.26 and 6.59, respectively. Further, the fraction unbound in data set [5] is 0.03; in data set [6] it was 0.03; in [7], 0.02; in data set [8], 0.07; in data set [9] it was 0.09. The clearance in data set [10] was determined as 36 mL/min/kg; in data set [13], 15 mL/min/kg; in [16] it was 10 mL/min/kg; in data set [20], 5 mL/min/kg; in “in vivo [2]” it was 36 mL/min/kg; in “in vivo [3]” it was 15 mL/min/kg. Further, the figures for the bioavailability in data set [11], in data set [14] and in [21] were 50%, 28% and 120%, respectively. Further, the area under the curve (AUC) (in general, concentration integrated over time) in [12] was 39 µM·h; in data set [15] it was 330 µM·h; in data set [22], 17 µM·h. In addition, the inhibition entry in the data set on Mus musculus [17], in the data set on Mus musculus [18] and in the data set with Mus musculus [19] was “Active” each time. Moreover, the concentration at 1 h in “in vivo [24]” came to 7.38 µM; in the data set “in vivo [26]” it was 1.08 µM. For the same compound, the results for the concentration at 6 h in the data set “in vivo [25]” and in “in vivo [27]” were 11.1 µM and 2.24 µM, respectively.
Consider `CN(C(=O)c1cc2c(s1)-c1ccccc1OCCC2)c1ccccc1Cl`, for which, in data set [1], the negative-log IC50 (pIC50) is < 5.00.
